# From the supplement of paper PMC12463676, “Small-molecule dissolution of stress granules by redox modulation benefits ALS models” (Nature Chemical Biology, 2025)
# Columns and labels:
# lipoamide = compound: NC(=O)CCCCC1CCSS1 [lipoamide]; assay: thermal stability z-score vs DMSO; higher = more thermally stabilized by treatment; conditions: HeLa, lipoamide concentration 100 µM
# Protocol: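 Cellular thermal proteome profiling in HeLa cells. Cells were treated with 100 µM lipoamide for 1 h, with or without 1 mM arsenate for a further 1 h, then heated to ten temperatures (37-66.3 °C), and soluble protein was quantified by TMT mass spectrometry relative to 0.1% DMSO controls. The thermal stability score (sum of log2 fold changes minus the abundance score) was transformed to a z-score; mean of n = 3 experiments.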
# potassium arsenate = compound: O=[As]([O-])(O)O.[K+] [potassium arsenate]; assay: as above; conditions: HeLa; arsenate concentration 1 mM
# Protocol: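 Cellular thermal proteome profiling in HeLa cells treated with 1 mM arsenate for 1 h (DMSO pretreatment), heated to ten temperatures (37-66.3 °C). Soluble protein was quantified by TMT mass spectrometry relative to DMSO controls; the thermal stability score was transformed to a z-score; mean of n = 3 experiments.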
# [1] = arsenate co-treatment: 1 mM arsenate 1 h
# 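Further: each temperature applied for 3 min, abundance score taken as mean log2 fold change at the two lowest temperatures, z-score obtained by mean subtraction and division by SD.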
# Chain of UniProt Q92536 (Q92536 whole entry): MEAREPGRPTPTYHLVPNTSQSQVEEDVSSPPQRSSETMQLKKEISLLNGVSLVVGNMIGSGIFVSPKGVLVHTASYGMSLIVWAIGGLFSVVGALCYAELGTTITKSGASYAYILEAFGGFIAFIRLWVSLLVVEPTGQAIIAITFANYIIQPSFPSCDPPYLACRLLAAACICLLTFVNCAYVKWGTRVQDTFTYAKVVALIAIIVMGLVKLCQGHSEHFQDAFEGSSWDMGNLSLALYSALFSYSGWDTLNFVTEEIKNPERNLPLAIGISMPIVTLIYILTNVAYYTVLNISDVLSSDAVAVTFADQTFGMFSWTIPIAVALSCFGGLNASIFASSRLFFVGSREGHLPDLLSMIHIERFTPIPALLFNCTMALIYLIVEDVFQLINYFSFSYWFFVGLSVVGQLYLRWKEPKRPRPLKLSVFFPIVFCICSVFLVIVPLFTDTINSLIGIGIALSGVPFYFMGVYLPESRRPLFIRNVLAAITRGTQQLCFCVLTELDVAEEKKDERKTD
# Chain of UniProt Q9UP95 (Q9UP95 whole entry): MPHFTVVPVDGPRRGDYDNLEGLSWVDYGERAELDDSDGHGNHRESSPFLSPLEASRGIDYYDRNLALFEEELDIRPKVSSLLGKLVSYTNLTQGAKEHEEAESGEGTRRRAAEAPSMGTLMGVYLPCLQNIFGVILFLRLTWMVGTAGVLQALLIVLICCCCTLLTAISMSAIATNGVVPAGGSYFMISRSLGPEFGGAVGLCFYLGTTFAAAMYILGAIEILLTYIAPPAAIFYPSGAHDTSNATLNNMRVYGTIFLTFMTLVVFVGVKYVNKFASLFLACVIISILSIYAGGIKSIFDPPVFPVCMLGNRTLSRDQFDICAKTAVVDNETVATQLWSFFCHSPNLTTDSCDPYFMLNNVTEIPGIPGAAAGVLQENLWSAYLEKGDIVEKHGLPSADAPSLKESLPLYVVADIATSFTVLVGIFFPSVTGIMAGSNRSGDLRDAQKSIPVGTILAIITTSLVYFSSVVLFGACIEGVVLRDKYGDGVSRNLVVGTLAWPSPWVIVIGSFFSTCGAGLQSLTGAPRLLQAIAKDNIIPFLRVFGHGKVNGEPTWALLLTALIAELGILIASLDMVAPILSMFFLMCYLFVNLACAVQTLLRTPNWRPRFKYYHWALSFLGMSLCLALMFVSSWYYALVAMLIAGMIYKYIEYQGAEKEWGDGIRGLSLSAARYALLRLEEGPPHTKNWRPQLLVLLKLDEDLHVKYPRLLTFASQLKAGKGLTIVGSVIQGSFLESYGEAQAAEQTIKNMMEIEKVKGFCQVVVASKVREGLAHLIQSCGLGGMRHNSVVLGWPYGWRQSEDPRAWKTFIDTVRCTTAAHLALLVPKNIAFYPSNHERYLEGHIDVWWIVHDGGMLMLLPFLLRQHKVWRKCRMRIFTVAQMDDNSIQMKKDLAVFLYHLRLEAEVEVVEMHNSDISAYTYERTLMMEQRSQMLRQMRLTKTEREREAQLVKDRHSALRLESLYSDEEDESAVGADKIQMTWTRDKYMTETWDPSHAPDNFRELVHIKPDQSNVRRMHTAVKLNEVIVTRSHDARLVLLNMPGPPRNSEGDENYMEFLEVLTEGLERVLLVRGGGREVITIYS
# Chain of UniProt Q9UHW9 (Q9UHW9 whole entry): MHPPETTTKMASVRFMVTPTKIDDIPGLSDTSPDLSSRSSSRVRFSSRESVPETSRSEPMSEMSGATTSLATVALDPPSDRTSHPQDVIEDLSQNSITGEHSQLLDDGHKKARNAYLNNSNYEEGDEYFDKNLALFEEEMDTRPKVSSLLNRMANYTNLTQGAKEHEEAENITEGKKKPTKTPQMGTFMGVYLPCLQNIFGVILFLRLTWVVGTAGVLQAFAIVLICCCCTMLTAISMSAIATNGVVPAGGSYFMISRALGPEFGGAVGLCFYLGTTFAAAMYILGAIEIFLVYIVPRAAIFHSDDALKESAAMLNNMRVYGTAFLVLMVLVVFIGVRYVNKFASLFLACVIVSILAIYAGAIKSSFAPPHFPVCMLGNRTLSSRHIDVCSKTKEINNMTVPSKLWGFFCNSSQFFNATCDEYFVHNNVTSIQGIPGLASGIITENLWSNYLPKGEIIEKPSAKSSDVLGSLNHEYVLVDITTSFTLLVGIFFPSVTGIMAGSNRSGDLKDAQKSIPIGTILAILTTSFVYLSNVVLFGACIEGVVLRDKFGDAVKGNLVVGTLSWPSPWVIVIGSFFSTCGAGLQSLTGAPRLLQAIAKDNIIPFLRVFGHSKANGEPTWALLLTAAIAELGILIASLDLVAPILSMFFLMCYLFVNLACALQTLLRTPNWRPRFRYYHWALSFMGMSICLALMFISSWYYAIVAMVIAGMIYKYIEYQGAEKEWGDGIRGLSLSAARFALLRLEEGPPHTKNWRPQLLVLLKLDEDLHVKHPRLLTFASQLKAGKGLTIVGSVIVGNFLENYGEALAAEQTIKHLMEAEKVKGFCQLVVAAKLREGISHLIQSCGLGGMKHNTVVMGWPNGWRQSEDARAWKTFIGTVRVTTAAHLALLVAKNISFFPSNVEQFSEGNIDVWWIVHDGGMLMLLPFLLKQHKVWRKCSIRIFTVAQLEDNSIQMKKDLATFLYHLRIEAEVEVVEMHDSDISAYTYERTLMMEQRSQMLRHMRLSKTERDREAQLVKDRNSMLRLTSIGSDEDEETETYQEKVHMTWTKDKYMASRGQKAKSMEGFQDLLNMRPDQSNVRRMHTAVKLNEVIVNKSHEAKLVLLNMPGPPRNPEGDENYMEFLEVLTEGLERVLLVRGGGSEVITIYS
# Chain of UniProt Q13309 (Q13309 whole entry): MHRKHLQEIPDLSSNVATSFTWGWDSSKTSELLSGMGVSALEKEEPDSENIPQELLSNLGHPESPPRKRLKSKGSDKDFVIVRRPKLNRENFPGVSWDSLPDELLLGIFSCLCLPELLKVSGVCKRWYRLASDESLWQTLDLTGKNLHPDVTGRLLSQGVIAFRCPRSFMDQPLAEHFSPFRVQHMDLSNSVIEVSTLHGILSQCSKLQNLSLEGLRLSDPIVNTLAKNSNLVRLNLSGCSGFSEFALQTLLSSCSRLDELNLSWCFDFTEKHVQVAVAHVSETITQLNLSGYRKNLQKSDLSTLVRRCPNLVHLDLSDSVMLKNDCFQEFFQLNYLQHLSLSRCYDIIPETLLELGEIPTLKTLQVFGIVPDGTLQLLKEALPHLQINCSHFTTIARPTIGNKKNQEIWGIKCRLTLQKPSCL
# Chain of UniProt P41440 (P41440 whole entry): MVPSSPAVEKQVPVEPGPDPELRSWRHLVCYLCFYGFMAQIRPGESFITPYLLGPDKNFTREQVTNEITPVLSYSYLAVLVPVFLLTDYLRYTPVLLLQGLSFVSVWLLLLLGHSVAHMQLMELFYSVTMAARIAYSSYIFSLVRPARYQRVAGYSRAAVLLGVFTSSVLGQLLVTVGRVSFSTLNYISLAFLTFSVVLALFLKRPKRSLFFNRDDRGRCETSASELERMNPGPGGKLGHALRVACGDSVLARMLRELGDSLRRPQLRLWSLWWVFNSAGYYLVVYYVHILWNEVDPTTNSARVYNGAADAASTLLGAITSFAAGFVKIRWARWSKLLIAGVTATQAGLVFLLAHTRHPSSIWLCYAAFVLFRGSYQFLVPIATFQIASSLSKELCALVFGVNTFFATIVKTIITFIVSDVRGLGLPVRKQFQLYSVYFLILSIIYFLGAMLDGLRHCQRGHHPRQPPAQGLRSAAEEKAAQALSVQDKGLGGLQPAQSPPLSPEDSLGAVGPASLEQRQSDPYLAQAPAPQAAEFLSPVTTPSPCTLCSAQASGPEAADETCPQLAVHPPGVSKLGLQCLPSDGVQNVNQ
# Chain of UniProt P53794 (P53794 whole entry): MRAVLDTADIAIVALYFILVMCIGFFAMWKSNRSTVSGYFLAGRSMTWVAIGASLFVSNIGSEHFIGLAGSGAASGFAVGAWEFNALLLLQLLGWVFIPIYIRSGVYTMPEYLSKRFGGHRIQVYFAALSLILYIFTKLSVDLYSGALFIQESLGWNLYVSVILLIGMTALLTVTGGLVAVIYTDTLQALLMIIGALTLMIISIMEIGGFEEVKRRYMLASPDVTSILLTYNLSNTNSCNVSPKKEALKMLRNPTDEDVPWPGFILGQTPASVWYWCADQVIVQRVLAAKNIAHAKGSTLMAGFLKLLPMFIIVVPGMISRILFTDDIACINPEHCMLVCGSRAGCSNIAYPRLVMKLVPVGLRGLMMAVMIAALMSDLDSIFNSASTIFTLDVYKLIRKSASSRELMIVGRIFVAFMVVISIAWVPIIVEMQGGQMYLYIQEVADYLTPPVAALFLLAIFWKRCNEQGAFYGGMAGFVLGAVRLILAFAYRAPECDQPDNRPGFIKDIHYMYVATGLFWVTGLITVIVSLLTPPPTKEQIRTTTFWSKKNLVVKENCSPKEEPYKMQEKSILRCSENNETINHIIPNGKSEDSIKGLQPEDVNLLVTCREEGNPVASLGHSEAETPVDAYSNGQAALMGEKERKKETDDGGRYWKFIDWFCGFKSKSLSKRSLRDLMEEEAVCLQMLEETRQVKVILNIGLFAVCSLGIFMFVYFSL
# Chain of UniProt Q14493 (Q14493 whole entry, looked up): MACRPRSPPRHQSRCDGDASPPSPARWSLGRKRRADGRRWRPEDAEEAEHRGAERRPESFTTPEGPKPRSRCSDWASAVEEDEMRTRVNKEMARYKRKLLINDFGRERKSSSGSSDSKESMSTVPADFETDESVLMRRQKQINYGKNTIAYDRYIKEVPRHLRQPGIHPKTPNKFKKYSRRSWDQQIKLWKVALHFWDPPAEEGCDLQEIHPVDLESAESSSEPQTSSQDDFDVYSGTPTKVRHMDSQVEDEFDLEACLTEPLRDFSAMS
# Chain of UniProt P12236 (P12236 whole entry): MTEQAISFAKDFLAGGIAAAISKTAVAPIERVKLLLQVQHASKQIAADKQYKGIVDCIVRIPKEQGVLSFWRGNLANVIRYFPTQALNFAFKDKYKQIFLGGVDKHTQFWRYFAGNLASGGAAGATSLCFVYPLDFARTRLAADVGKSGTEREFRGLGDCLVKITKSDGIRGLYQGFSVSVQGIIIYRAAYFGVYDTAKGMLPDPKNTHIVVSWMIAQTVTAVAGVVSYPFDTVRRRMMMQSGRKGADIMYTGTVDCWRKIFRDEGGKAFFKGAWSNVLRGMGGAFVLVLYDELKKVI
Target,thermal stability z-score (lipoamide; [1]),thermal stability z-score (lipoamide; arsenate co-treatment: none),thermal stability z-score (potassium arsenate)
SKIV2L (UniProt Q15477),-0.147,-0.384,0.2
SKP1 (UniProt P63208),0.337,0.557,-0.000141
SKP2 (UniProt Q13309),-0.219,-0.122,-0.872
SLAIN2 (UniProt Q9P270),0.251,0.508,-0.0239
SLBP (UniProt Q14493),-0.736,0.179,-1.06
SLC1A3 (UniProt P43003),-0.157,0.124,0.352
SLC1A4 (UniProt P43007),-0.807,-0.485,-0.588
SLC1A5 (UniProt Q15758),0.752,0.31,0.00339
SLC2A1 (UniProt P11166),0.651,0.659,0.124
SLC2A3 (UniProt P11169),0.481,0.126,-0.293
SLC3A2 (UniProt P08195),0.528,0.49,0.0559
SLC4A1AP (UniProt Q9BWU0),0.445,0.341,-1.27
SLC4A2 (UniProt P04920),0.115,0.433,0.173
SLC4A7 (UniProt Q9Y6M7),-0.0849,0.00104,-0.747
SLC5A3 (UniProt P53794),-0.536,-0.363,-1.12
SLC5A6 (UniProt Q9Y289),-0.586,-0.512,0.342
SLC6A6 (UniProt P31641),-0.428,-0.488,-0.649
SLC6A9 (UniProt P48067),-0.26,-0.8,-0.636
SLC7A1 (UniProt P30825),0.364,-0.194,-0.33
SLC7A2 (UniProt P52569),0.412,-0.0842,0.647
SLC7A5 (UniProt Q01650),1.39,1.19,1.47
SLC7A6 (UniProt Q92536),-0.86,-0.83,-0.695
SLC7A6OS (UniProt Q96CW6),-0.344,0.403,-0.000281
SLC7A11 (UniProt Q9UPY5),0.242,0.155,-0.0447
SLC9A1 (UniProt P19634),-0.174,-0.629,0.274
SLC9A3R1 (UniProt O14745),0.348,0.362,-0.36
SLC9A3R2 (UniProt Q15599),-0.0651,0.332,-0.923

Target,thermal stability z-score (lipoamide; [1]),thermal stability z-score (lipoamide; arsenate co-treatment: none),thermal stability z-score (potassium arsenate)
SLC9A6 (UniProt Q92581),-0.145,-0.0692,-0.165
SLC11A2 (UniProt P49281),-1.6,-0.179,0.512
SLC12A2 (UniProt P55011),-0.435,-0.195,-0.72
SLC12A4 (UniProt Q9UP95),-0.481,-1.18,-0.606
SLC12A6 (UniProt Q9UHW9),-0.454,-0.27,0.131
SLC15A4 (UniProt Q8N697),0.836,0.0913,-0.239
SLC16A1 (UniProt P53985),0.774,1.02,0.385
SLC16A3 (UniProt O15427),0.645,0.712,0.351
SLC17A5 (UniProt Q9NRA2),0.265,0.076,-0.982
SLC18B1 (UniProt Q6NT16),-0.405,-0.045,-0.173
SLC19A1 (UniProt P41440),-0.381,-0.505,0.0431
SLC20A1 (UniProt Q8WUM9),0.249,0.0269,-0.23
SLC22A18 (UniProt Q96BI1),0.00763,-0.34,-0.0251
SLC25A1 (UniProt P53007),1.03,0.6,0.43
SLC25A3 (UniProt Q00325),0.802,0.951,0.572
SLC25A4 (UniProt P12235),-0.0513,0.0728,0.373
SLC25A5 (UniProt P05141),0.657,0.589,0.562
SLC25A6 (UniProt P12236),0.809,0.762,0.433
SLC25A11 (UniProt Q02978),0.183,0.431,0.593
SLC25A12 (UniProt O75746),-0.149,-0.154,-0.0761
SLC25A13 (UniProt Q9UJS0),-0.445,-0.77,-0.312
SLC25A15 (UniProt Q9Y619),0.309,0.0332,0.22
SLC25A17 (UniProt O43808),-0.416,-0.577,-0.824
SLC25A19 (UniProt Q9HC21),-0.0932,0.281,-0.374
SLC25A20 (UniProt O43772),2.62,0.0858,-0.0934
SLC25A22 (UniProt Q9H936),-0.147,0.0868,-0.472
SLC25A24 (UniProt Q6NUK1),-0.0911,-0.127,0.205
